Columns and labels:
human GLP-1 receptor = molecular target: T1, human GLP-1 receptor (Homo sapiens, UniProt P43220); test: cAMP activity test (cAMP dynamic HTRF kit) in CHO-K1/GLP-1 receptor-expressing cells; type: cell-based; conditions: cAMP activity, CHO-K1/GLP-1 receptor-expressing cells; read-out: EC50
T1 construct: host or cells: CHO-K1
Summary of the method: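 Cells in HBSS with 0.1% BSA, 0.5 mM IBMX and 5 mM HEPES, then lysed; cAMP-d2 and anti-cAMP cryptate added for 3 h. HTRF read-out, where FRET signal is inversely proportional to intracellular cAMP.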

hERG = molecular target: T2, hERG (Homo sapiens, UniProt Q12809); test: hERG inhibition test (Predictor hERG Fluorescence Polarization assay kit); type: binding; conditions: probe kit Tracer (fluorescent hERG ligand), hERG % inhibition at 10 uM, relative to E-4031 and solvent control
T2 construct: purchased Invitrogen PV5365
Summary of the method: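 Competitive fluorescence-polarization binding of fluorescent tracer to hERG membrane preparation, 2.5 h at room temperature, mP read at 531/579 nm. % inhibition at 10 uM test compound, scaled between solvent control (0%) and E-4031 (100%).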

T2 sequence (Q12809 whole entry): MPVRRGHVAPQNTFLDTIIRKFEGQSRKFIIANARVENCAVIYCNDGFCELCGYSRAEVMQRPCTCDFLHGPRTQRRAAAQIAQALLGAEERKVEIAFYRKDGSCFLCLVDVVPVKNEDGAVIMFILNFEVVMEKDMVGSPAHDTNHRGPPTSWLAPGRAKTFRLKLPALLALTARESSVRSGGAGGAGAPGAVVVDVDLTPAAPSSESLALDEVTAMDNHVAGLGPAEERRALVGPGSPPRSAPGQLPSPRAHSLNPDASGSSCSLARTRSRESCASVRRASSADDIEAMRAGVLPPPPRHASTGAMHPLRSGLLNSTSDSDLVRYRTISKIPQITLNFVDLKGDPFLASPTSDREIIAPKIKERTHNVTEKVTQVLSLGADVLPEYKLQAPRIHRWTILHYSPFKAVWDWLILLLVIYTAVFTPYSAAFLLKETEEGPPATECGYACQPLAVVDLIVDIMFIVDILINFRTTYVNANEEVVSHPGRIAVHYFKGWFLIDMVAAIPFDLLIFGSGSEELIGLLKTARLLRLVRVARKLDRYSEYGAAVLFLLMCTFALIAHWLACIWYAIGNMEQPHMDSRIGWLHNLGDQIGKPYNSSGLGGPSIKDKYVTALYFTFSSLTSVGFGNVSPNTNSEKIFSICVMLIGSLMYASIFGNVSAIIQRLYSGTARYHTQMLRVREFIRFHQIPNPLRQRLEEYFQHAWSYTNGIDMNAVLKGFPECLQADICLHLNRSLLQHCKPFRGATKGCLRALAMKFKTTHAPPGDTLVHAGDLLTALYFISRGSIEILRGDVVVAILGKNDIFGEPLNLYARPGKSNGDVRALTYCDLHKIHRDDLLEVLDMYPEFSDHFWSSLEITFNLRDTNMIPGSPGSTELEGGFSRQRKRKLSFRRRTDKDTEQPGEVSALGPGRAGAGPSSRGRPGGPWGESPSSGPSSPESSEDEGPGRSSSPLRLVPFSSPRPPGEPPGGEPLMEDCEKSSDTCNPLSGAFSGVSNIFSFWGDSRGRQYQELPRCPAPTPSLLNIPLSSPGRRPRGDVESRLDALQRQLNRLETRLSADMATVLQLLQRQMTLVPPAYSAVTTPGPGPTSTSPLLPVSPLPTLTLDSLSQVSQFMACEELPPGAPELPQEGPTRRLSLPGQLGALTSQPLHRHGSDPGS
T1 sequence (P43220 24-463): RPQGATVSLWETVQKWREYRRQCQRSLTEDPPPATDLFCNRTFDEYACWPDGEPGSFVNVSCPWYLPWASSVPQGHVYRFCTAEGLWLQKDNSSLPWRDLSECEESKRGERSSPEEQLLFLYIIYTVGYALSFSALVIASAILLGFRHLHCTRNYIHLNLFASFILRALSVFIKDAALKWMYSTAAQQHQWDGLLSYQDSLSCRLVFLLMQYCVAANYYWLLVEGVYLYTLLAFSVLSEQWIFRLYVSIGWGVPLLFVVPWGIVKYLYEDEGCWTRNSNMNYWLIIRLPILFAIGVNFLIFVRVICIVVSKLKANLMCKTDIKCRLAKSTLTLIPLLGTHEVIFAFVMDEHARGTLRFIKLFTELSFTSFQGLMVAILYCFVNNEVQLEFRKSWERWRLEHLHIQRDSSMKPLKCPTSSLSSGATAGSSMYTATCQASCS

Structure (SMILES)	EC50 (human GLP-1 receptor) [nM]	inhibition at 2.5 h, 10 µM (hERG) [%]
N#Cc1ccc(COc2cccc(-c3cc(F)c(Cc4nc5ccc(C(=O)O)cc5n4C[C@@H]4CCCO4)cc3F)n2)c(F)c1 [Example 120, (S)-2-(4-(6-((4-cyano-2-fluorobenzyl)oxy)pyridin-2-yl)-2,5-difluorobenzyl)-1-((tetrahydrofuran-2-yl)methyl)-1H-benzo[d]imidazole-6-carboxylic acid]	< 3.2	-3.82
COc1ccc(COc2cccc(-c3ccc(Cc4nc5ccc(C(=O)O)cc5n4C[C@@H]4CCO4)cc3F)n2)cc1 [Example 122, (S)-2-(3-fluoro-4-(6-((4-methoxybenzyl)oxy)pyridin-2-yl)benzyl)-1-(oxetan-2-ylmethyl)-1H-benzo[d]imidazole-6-carboxylic acid]	9.5	-5.75
O=C(O)c1ccc2nc(Cc3ccc(-c4cccc(OCc5ccc(Cl)cc5F)c4)cc3F)n(CCF)c2c1 [Example 56, 2-((3′-(4-chloro-2-fluorobenzyloxy)-3-fluorobiphenyl-4-yl)methyl)-1-(2-fluoroethyl)-1H-benzo[d]imidazole-6-carboxylic acid]	800	0.83
O=C(O)c1ccc2nc(Cc3ccc(-c4cccc(OCc5ccc(Cl)cc5F)n4)c(F)c3)n(C[C@@H]3CCO3)c2c1 [Example 79, (S)-2-(4-(6-(4-chloro-2-fluorobenzyloxy)pyridin-2-yl)-3-fluorobenzyl)-1-(oxetan-2-ylmethyl)-1H-benzo[d]imidazole-6-carboxylic acid]	< 3.2	-2.04
COc1cc(-c2cccc(OCc3ccc(Cl)cc3F)n2)ccc1Cc1nc2ccc(C(=O)O)cc2n1CC1CCCO1 (centres unmarked) [Example 63, 2-(4-(6-(4-chloro-2-fluorobenzyloxy)pyridin-2-yl)-2-methoxybenzyl)-1-((tetrahydrofuran-2-yl)methyl)-1H-benzo[d]imidazole-6-carboxylic acid]	160	-19.6
O=C(O)c1ccc2nc(Cc3ccc(-c4cccc(OCc5ccc(Cl)cc5F)n4)c(F)c3F)n(C[C@@H]3CCO3)c2c1 [Example 82, (S)-2-(4-(6-(4-chloro-2-fluorobenzyloxy)pyridin-2-yl)-2,3-difluorobenzyl)-1-(oxetan-2-ylmethyl)-1H-benzo[d]imidazole-6-carboxylic acid]	4	7.24
O=C(O)c1ccc2nc(Cc3ccc(-c4cccc(OCc5ccc(Cl)cc5F)n4)cc3F)n(Cc3cnco3)c2c1 [Example 34, 2-(4-(6-(4-chloro-2-fluorobenzyloxy)pyridin-2-yl)-2-fluorobenzyl)-1-(oxazol-5-ylmethyl)-1H-benzo[d]imidazole-6-carboxylic acid]	9.2	-12.6
O=C(O)c1ccc2nc(Cc3ccc(-c4cccc(OCc5ccccc5)n4)cc3F)n(CC3CCCO3)c2c1 (centres unmarked) [Example 83, 2-(4-(6-(benzyloxy)pyridin-2-yl)-2-fluorobenzyl)-1-((tetrahydrofuran-2-yl)methyl)-1H-benzo[d]imidazole-6-carboxylic acid]	160	2.37
O=C(O)c1ccc2nc(Cc3ccc(-c4cccc(OCc5ccc(Cl)cc5F)n4)cc3F)n(CCF)c2c1 [Example 43, 2-(4-(6-(4-chloro-2-fluorobenzyloxy)pyridin-2-yl)-2-fluorobenzyl)-1-(2-fluoroethyl)-1H-benzo[d]imidazole-6-carboxylic acid]	72	-2.26
COCCn1c(Cc2ccc(-c3cccc(OCc4ccc(C#N)cc4F)c3)c(F)c2)nc2ccc(C(=O)O)cc21 [Example 40, 2-((3′-(4-cyano-2-fluorobenzyloxy)-2-fluorobiphenyl-4-yl)methyl)-1-(2-methoxyethyl)-1H-benzo[d]imidazole-6-carboxylic acid]	260	6.91
O=C(O)c1ccc2nc(Cn3ccc(-c4cccc(OCc5ccc(Cl)cc5F)n4)cc3=O)n(C[C@@H]3CCCO3)c2c1 [Example 108, (S)-2-((4-(6-(4-chloro-2-fluorobenzyloxy)pyridin-2-yl)-2-oxopyridin-1(2H)-yl)methyl)-1-((tetrahydrofuran-2-yl)methyl)-1H-benzo[d]imidazole-6-carboxylic acid]	130	4
O=C(O)c1ccc2nc(Cc3ccc(-c4cccc(OCc5ccc(Cl)cc5F)n4)cc3F)n(CC3CCCO3)c2c1 (centres unmarked) [Example 17, 2-(4-(6-(4-chloro-2-fluorobenzyloxy)pyridin-2-yl)-2-fluorobenzyl)-1-((tetrahydrofuran-2-yl)methyl)-1H-benzo[d]imidazole-6-carboxylic acid]	8.2	-9.12
O=C(O)c1ccc2nc(Cc3cc(F)c(-c4cccc(OCc5ccc(Cl)cc5F)n4)cc3F)n(CC3CCCO3)c2c1 (centres unmarked) [Example 70, 2-(4-(6-(4-chloro-2-fluorobenzyloxy)pyridin-2-yl)-2,5-difluorobenzyl)-1-((tetrahydrofuran-2-yl)methyl)-1H-benzo[d]imidazole-6-carboxylic acid]	< 3.2	-6.14
O=C(O)c1ccc2nc(Cc3ccc(-c4cccc(OCc5ccc(C(F)(F)F)cc5)n4)cc3F)n(CC3CCCO3)c2c1 (centres unmarked) [Example 77, 2-(2-fluoro-4-(6-(4-(trifluoromethyl)benzyloxy)pyridin-2-yl)benzyl)-1-((tetrahydrofuran-2-yl)methyl)-1H-benzo[d]imidazole-6-carboxylic acid]	28	-70.9
O=C(O)c1ccc2nc(Cc3ccc(-c4cccc(OCc5ccc(Cl)cc5F)n4)c(F)c3)n(CCF)c2c1 [Example 55, 2-(4-(6-(4-chloro-2-fluorobenzyloxy)pyridin-2-yl)-3-fluorobenzyl)-1-(2-fluoroethyl)-1H-benzo[d]imidazole-6-carboxylic acid]	210	35.4
N#Cc1ccc(COc2cccc(-c3ccn(Cc4nc5ccc(C(=O)O)cc5n4CC4CCCO4)c(=O)c3)c2)c(F)c1 (centres unmarked) [Example 107, 2-((4-(3-(4-cyano-2-fluorobenzyloxy)phenyl)-2-oxopyridin-1(2H)-yl)methyl)-1-((tetrahydrofuran-2-yl)methyl)-1H-benzo[d]imidazole-6-carboxylic acid]	380	2.7
N#Cc1ccc(COc2cccc(-c3ccc(Cc4nc5ccc(C(=O)O)cc5n4CCF)cc3F)n2)c(F)c1 [Example 58, 2-(4-(6-(4-cyano-2-fluorobenzyloxy)pyridin-2-yl)-3-fluorobenzyl)-1-(2-fluoroethyl)-1H-benzo[d]imidazole-6-carboxylic acid]	170	2.81
O=C(O)c1ccc2nc(Cc3ccc(-c4cccc(OCc5ccc(Cl)cc5F)n4)cc3F)n(C[C@@H]3CCCO3)c2c1 [Example 59, (S)-2-(4-(6-(4-chloro-2-fluorobenzyloxy)pyridin-2-yl)-2-fluorobenzyl)-1-((tetrahydrofuran-2-yl)methyl)-1H-benzo[d]imidazole-6-carboxylic acid]	5.8	-21
N#Cc1ccc(COc2cccc(-c3ccc(Cc4nc5ccc(C(=O)O)cc5n4CC4CCCO4)c(F)c3)n2)cc1 (centres unmarked) [Example 87, 2-(4-(6-(4-cyanobenzyloxy)pyridin-2-yl)-2-fluorobenzyl)-1-((tetrahydrofuran-2-yl)methyl)-1H-benzo[d]imidazole-6-carboxylic acid]	18	32.9
O=C(O)c1ccc2nc(Cc3ccc(-c4cccc(OCc5ccncc5)n4)c(F)c3)n(C[C@@H]3CCO3)c2c1 [Example 128, (S)-2-(3-fluoro-4-(6-(pyridin-4-ylmethoxy)pyridin-2-yl)benzyl)-1-(oxetan-2-ylmethyl)-1H-benzo[d]imidazole-6-carboxylic acid]	260	-6.1
COCCn1c(Cc2ccc(-c3cccc(OCc4ccc(Cl)cc4F)n3)c(C)c2)nc2ccc(C(=O)O)cc21 [Example 4, 2-(4-(6-(4-chloro-2-fluorobenzyloxy)pyridin-2-yl)-3-methylbenzyl)-1-(2-methoxyethyl)-1H-benzo[d]imidazole-6-carboxylic acid]	200	-2.87
COCCn1c(Cc2ccc(-c3cccc(OCc4ccc(Cl)cc4F)c3)cc2F)nc2ccc(C(=O)O)cc21 [Example 36, 2-((3′-(4-chloro-2-fluorobenzyloxy)-3-fluorobiphenyl-4-yl)methyl)-1-(2-methoxyethyl)-1H-benzo[d]imidazole-6-carboxylic acid]	88	-10.8
O=C(O)c1ccc2nc(Cc3ccc(-c4cccc(OCc5ccc(Cl)cc5F)n4)cc3F)n(C[C@H]3CCCO3)c2c1 [Example 51, (R)-2-(4-(6-(4-chloro-2-fluorobenzyloxy)pyridin-2-yl)-2-fluorobenzyl)-1-((tetrahydrofuran-2-yl)methyl)-1H-benzo[d]imidazole-6-carboxylic acid]	52	-4.69
COCCn1c(Cc2ccc(-c3cccc(OCc4ccc(Cl)cc4F)n3)c(F)c2)nc2ccc(C(=O)O)cc21 [Example 6, 2-(4-(6-(4-chloro-2-fluorobenzyloxy)pyridin-2-yl)-3-fluorobenzyl)-1-(2-methoxyethyl)-1H-benzo[d]imidazole-6-carboxylic acid]	25	22.8
N#Cc1ccc(COc2cccc(-c3ccc(Cc4nc5ccc(C(=O)O)cc5n4C[C@@H]4CCO4)cc3F)n2)c(F)c1 [Example 74, (S)-2-(4-(6-(4-cyano-2-fluorobenzyloxy)pyridin-2-yl)-3-fluorobenzyl)-1-(oxetan-2-ylmethyl)-1H-benzo[d]imidazole-6-carboxylic acid]	5.8	-16.2

— patent publication US12421205B2, “GLP-1 receptor agonist” (HYUNDAI PHARM CO., LTD., priority 2019, dated 2025)
